Assay results as given in ChEMBL document CHEMBL1141287, “Cardenolides from Saussurea stella with cytotoxicity toward cancer cells” (J Nat Prod, 2007).

Tests used:
Bel-7402 = test: Cytotoxicity against human Bel7402 cells after 48 hrs by sulforhodamine B assay; type: functional, cell-based; settings: Bel-7402, 48 h
[1] = Cytotoxicity against human BCG823 cells after 48 hrs by sulforhodamine B assay; type: functional, cell-based; settings: BCG823, 48 h

Row | SMILES | IC50 (Bel-7402) [nM] | IC50 [1] [nM]
1 | C[C@@H]1O[C@@H](O[C@H]2CC[C@@]3(C=O)[C@H](CC[C@@H]4[C@@H]3CC[C@]3(C)[C@@H](C5=CC(=O)OC5)CC[C@]43O)C2)[C@H](O)[C@H](O)[C@H]1O[C@@H]1O[C@H](CO)[C@@H](O)[C@H](O)[C@H]1O | 870 | 290
2 | C[C@H]1O[C@@H](O[C@H]2CC[C@]3(C=O)[C@H]4CC[C@]5(C)[C@@H](C6=CC(=O)OC6)CC[C@]5(O)[C@@H]4CC[C@]3(O)C2)[C@H](O)[C@@H](O)[C@@H]1O | 20 | 100
3 | C[C@]12CC[C@H]3[C@@H](CC[C@]4(O)C[C@@H](O[C@@H]5OC[C@@H](O)[C@H](O)[C@H]5O)CC[C@]34C=O)[C@@]1(O)CC[C@@H]2C1=CC(=O)OC1 | 130 | 16
4 | C[C@@H]1O[C@@H](O[C@@H]2C[C@H]3CC[C@@H]4[C@H](CC[C@]5(C)[C@@H](C6=CC(=O)OC6)CC[C@]45O)[C@@]3(C)[C@H](O)C2)[C@H](O)[C@H](O)[C@H]1O | 240 | 56
5 | C[C@H]1O[C@@H](O[C@H]2CC[C@]3(C)[C@H]4CC[C@]5(C)[C@@H](C6=CC(=O)OC6)CC[C@]5(O)[C@@H]4CC[C@]3(O)C2)[C@H](O)[C@@H](O)[C@@H]1O | 310 | 70
6 | C[C@H]1O[C@@H](O[C@H]2CC[C@]3(C)[C@H]4CC[C@]5(C)[C@@H](C6=CC(=O)OC6)CC[C@]5(O)[C@@H]4CC[C@]3(O)C2)[C@H](O)[C@@H](O)[C@H]1O | 400 | 120
7 | C[C@@H]1O[C@@H](O[C@H]2CC[C@@]3(CO)[C@H](CC[C@@H]4[C@@H]3CC[C@]3(C)[C@@H](C5=CC(=O)OC5)CC[C@]43O)C2)[C@H](O)[C@H](O)[C@H]1O | 28 | 77
8 | C[C@@H]1O[C@@H](O[C@H]2CC[C@]3(C=O)[C@H]4CC[C@]5(C)[C@@H](C6=CC(=O)OC6)CC[C@]5(O)[C@@H]4CC[C@]3(O)C2)[C@H](O)[C@H](O)[C@H]1O [CONVALLATOXIN] | 50 | 16
9 | C[C@]12CC[C@H](O[C@@H]3OC[C@@H](O)[C@H](O)[C@H]3O)C[C@@]1(O)CC[C@@H]1[C@@H]2CC[C@]2(C)[C@@H](C3=CC(=O)OC3)CC[C@]12O | 480 | 230
